What all share (format): cell-based
The subject of experiment [1] is Enterococcus faecium ATCC 700221 (VRE). The experiment can be described thus: Broth microdilution MIC, E. faecium ATCC 700221 (VRE). As to conditions: Enterococcus faecium; broth microdilution, 37° C., 20 hours; read-out: MIC E. faecium ATCC 700221 (VRE). A digest of the protocol: (§1)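 Broth microdilution in strain-specific test medium with ~5.0×10^5 cfu/ml inoculum, 1% DMSO and two-fold compound dilutions from 64 to 0.0625 μg/ml. Plates were held 20 hours at 37° C in ambient air. S. pneumoniae colonies were grown beforehand on blood agar in 5% CO2.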
(In general: In broth dilution the organism is exposed to a series of concentrations in liquid medium.)

Experiment [2] relates to Escherichia coli ATCC 25922. The experiment can be described thus: Broth microdilution MIC, E. coli ATCC 25922 (MHIIB w & w/o 4 mM EDTA). The conditions noted are these: broth microdilution, 37° C., 20 hours; for MIC: Escherichia coli, ATCC25922, without EDTA, read-out: MIC E. coli ATCC 25922; for MIC E. coli ATCC 25922 + 4 mM EDTA: with 4 mM EDTA. A digest of the protocol:
as §1

Experiment [3] has as its system Staphylococcus aureus ATCC 29213 (MSSA). The experiment can be described thus: Broth microdilution MIC, S. aureus ATCC 29213 (MSSA). The conditions noted are these: broth microdilution, 37° C., 20 hours, read-out: MIC S. aureus ATCC 29213 (MSSA). The method in brief: as §1
For experiment [4], the system named is Staphylococcus aureus NRS384 (MRSA). The experiment can be described thus: Broth microdilution MIC, S. aureus NRS384 (MRSA). As to conditions: Staphylococcus aureus; broth microdilution, 37° C., 20 hours; read-out: MIC NRS 384 (MRSA). A digest of the protocol:
as §1

Experiment [5] deals with Bacillus subtilis ATCC 6633. The experiment can be described thus: Broth microdilution MIC, B. subtilis ATCC 6633. The conditions noted are these: ATCC6633, broth microdilution, 37° C., 20 hours, read-out: MIC B. subtilis ATCC 6633. The method in brief:
as §1

Experiment [6] relates to Streptococcus pneumoniae ATCC 49619. The experiment can be described thus: Broth microdilution MIC, S. pneumoniae ATCC 49619. The conditions noted are these: ATCC49619, broth microdilution, 37° C., 20 hours, read-out: MIC S. pneumoniae ATCC 49619. The method in brief: as §1
For experiment [7], the system named is Enterococcus faecalis ATCC 29212. The experiment can be described thus: Broth microdilution MIC, E. faecalis ATCC 29212. The conditions noted are these: ATCC29212, broth microdilution, 37° C., 20 hours, read-out: MIC E. faecalis ATCC 29212. A digest of the protocol:
as §1

As usually defined, the MIC is the least concentration at which growth counts as inhibited.

Molecules are shown by their SMILES.

Take `CNC(=O)c1nn(C)c2c(=O)[nH]c(NCc3ccc(Cl)c(Cl)c3)nc12` [Compound 42, 5-((3,4-dichlorobenzyl)amino)-N, 1-dimethyl-7-oxo-6,7-dihydro-1H-pyrazolo[4,3-d]pyrimidine-3-carboxamide]: the MIC in experiment [1], in experiment [2], in experiment [3], in experiment [4], in experiment [5] and in experiment [6] was over 64 µg/mL each time. The MIC in experiment [7] was over 64 µg/mL. In addition, in experiment [2], the “MIC E. coli ATCC 25922 + 4 mM EDTA” value was over 64 µg/mL.

Take `Cl.O=c1[nH]c(NCc2ccc(Cl)c(Cl)c2)nc2cnn(CCOCCN3CCOCC3)c12` [Compound 160, 5-((3,4-dichlorobenzyl)amino)-1-(2-(2-morpholinoethoxy)ethyl)-1H-pyrazolo[4,3-d]pyrimidin-7(6H)-one hydrochloride]: the minimal inhibitory concentration (MIC) was 8 µg/mL in experiment [1]; over 64 µg/mL in experiment [2]; 16 µg/mL in experiment [3]; 16 µg/mL in experiment [4]; 4 µg/mL in experiment [5]; 4 µg/mL in experiment [6]. Also, the MIC in experiment [7] is 16 µg/mL. Also, the “MIC E. coli ATCC 25922 + 4 mM EDTA” value in experiment [2] is 64 µg/mL.

These data come from patent publication US10723741B1, “DNA polymerase IIIC inhibitors and use thereof” (Acurx Pharmaceuticals, LLC, priority 2018, dated 2020).
